Measurements as given in US5453533A (priority 1994, dated 1995).
Entries after “also recorded” stand apart in the source; their conditions may differ. Like-named read-outs stand apart in the source and are kept apart here.

Legend:
[1] = molecular target: T1, type B (B/Memphis/3/89) neuraminidase (Influenza B virus (B/Memphis/3/89), UniProt P16199); format: biochemical; conditions: read-out: IC50, MUN substrate, B/Mem/89
[2] = molecular target: T2, N2 (A/Tokyo/67) neuraminidase (Influenza A virus, UniProt P06820); experiment: biochemical; design: species or system influenza A virus (A/Tokyo/67)
[3] = molecular target: T1, type B (B/Memphis/3/89) neuraminidase; format: biochemical; conditions: read-out: IC50, Fetuin substrate, B/Mem/89
[4] = molecular target: T2, N2 (A/Tokyo/67) neuraminidase; experiment: biochemical; design: species or system influenza A virus (A/Tokyo/67); remark: listed apart in the source
[5] = test system: influenza neuraminidase; conditions: cited from earlier work
[6] = test system: influenza subtype A; conditions: cited from earlier work
[7] = test system: influenza B; conditions: cited from earlier work
[8] = test system: influenza NA; format: biochemical, influenza virus type A or type B
[9] = molecular target: N2 (Influenza A virus (A/Tokyo/3/1967(H2N2)), UniProt P06820); format: binding
[10] = test system: Influenza NA; conditions: trisaccharide substrate; cited from earlier work
[11] = molecular target: influenza A neuramidase; conditions: Taylor & von Itzstein, 1994; cited from earlier work
[12] = whole virus, 50% inhibition of NA activity, MUN, 15 minutes at 37° C, pH 6.0

Sequence of N2 (Influenza A virus (A/Tokyo/3/1967(H2N2)), UniProt P06820) (P06820 whole entry, looked up): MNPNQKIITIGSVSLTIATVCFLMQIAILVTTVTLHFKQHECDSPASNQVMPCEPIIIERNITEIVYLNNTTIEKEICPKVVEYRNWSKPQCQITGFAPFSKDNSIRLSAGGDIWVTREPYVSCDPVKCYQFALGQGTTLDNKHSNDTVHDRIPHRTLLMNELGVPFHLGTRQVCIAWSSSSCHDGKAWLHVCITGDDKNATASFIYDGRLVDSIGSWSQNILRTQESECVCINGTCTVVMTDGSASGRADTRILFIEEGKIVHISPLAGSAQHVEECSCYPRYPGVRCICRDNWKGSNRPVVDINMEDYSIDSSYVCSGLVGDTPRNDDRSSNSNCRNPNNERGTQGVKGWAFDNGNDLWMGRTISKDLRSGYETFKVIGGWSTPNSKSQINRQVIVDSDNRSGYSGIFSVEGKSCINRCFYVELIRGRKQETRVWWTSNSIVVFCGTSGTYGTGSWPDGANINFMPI
T2 sequence (P06820 whole entry, looked up): as above
T1 sequence (P16199 whole entry, looked up): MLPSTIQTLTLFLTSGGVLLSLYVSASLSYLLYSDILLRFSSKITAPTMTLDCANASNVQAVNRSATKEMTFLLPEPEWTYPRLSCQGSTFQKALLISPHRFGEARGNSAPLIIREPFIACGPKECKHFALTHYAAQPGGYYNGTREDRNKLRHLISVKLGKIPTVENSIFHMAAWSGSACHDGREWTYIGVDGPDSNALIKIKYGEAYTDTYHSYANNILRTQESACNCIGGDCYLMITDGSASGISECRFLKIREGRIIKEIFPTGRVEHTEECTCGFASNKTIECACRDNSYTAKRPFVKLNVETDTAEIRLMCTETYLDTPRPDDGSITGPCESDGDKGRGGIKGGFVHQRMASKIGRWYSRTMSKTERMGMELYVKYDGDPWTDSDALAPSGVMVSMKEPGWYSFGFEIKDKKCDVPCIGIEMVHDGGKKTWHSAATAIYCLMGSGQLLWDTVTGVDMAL

Compound | IC50 ([1]; pH 6) | IC50 [2] | IC50 [3] | IC50 [4] | other results
CC(=O)Nc1ccc(C(=O)O)cc1NC(=O)CO [Compound 109, 4-(acetylamino)-3-[(hydroxyacetyl)amino]benzoic acid] | 3 mM | > 10 mM | 10 mM | 4 mM | –
CC(=O)Nc1ccc(C(=O)O)cc1NC(=O)C(O)CO (stereo not shown) [Compound 110, 4-(acetylamino)-3-[(2,3-dihydroxypropionyl)amino]benzoic acid] | 8 mM | – | > 10 mM | – | –
O=C(O)C1=C[C@H](O)[C@@H](NC(=O)C(F)(F)F)[C@H]([C@H](O)[C@H](O)CO)O1 [FANA, 2-deoxy-2,3-dehydro-N-(trifiuoroacetyl)neuraminic acid] | – | – | – | – | in vitro activity compared with DANA ([5]; Palese and Compans, 1976): greater in vitro activity
NC12CC3CC(CC(C3)C1)C2 [amantadine] | – | – | – | – | effect against influenza A [6]: effective only against influenza subtype A; effect on influenza B [7]: no effect on influenza B
CC(=O)Nc1ccc(C(=O)O)cc1[N+](=O)[O-] [Compound 107] | – | 5 mM | – | 5 mM | IC50 [1, 12]: 5 mM; IC50 ([3]; whole virus, 50% inhibition of NA activity, fetuin): 5 mM; Change in activity from nitro group alone or phenol OH alone [8]: did not result in significant changes in activity
CC(=O)Nc1ccc(C(=O)O)cc1N [Compound 108, 4-(acetylamino)-3-aminobenzoic acid] | > 20 mM | > 10 mM | – | > 10 mM | binding to N2 [9]: binds the weakest to N2
CC(=O)Nc1cc([N+](=O)[O-])c(C(=O)O)c([N+](=O)[O-])c1O [Compound 103, 4-(acetylamino)-3-hydroxy-2,6-dinitrobenzoic acid] | 1 mM | – | 4 mM | – | –
CC(=O)Nc1ccc(C(=O)O)cc1O [Compound 101, 4-(acetylamino)-3-hydroxybenzoic acid] | > 10 mM | 10 mM | 10 mM | > 10 mM | Change in activity from nitro group alone or phenol OH alone [8]: did not result in significant changes in activity
CC(=O)Nc1ccc(C(=O)O)cc1NC(=O)CN [Compound 111, 4-(acetylamino)-3-[(aminoacetyl)amino]benzoic acid] | – | – | 5 mM | 5 mM | –
CC(=O)Nc1c(N)cc(C(=O)O)cc1O.Cl [Compound 106, 3-amino-4-(acetylamino)-5-hydroxybenzoic acid, hydrochloride] | 10 mM | > 10 mM | > 10 mM | > 10 mM | binding to N2 [9]: bind fairly well
CC(=O)Nc1ccc(C(=O)O)cc1OC(C)=O [Compound 102, 4-(acetylamino)-3-acetoxybenzoic acid] | > 10 mM | 10 mM | 5 mM | > 10 mM | –
CC(=O)Nc1c(OC(C)=O)cc(C(=O)O)cc1[N+](=O)[O-] [Compound 104, 3-acetoxy-4-(acetylamino)-5-nitrobenzoic acid] | 2 mM | – | 5 mM | – | –
CC(=O)Nc1c(O)cc(C(=O)O)cc1[N+](=O)[O-] [Compound 105, 4-(acetylamino)-3-hydroxy-5-nitrobenzoic acid] | 0.75 mM | – | 1 mM | – | binding to N2 [9]: binds strongest to N2; Activity compared with sialic acid [8]: significantly more potent than sialic acid; also recorded: enhanced activity
CC(=O)Nc1ccc(C(=O)O)cc1NC(=O)CCCN [Compound 112, 4-(acetylamino)-3-[(4-aminobutanoyl)amino]benzoic acid] | > 10 mM | > 10 mM | > 10 mM | > 10 mM | –
CC(N)C12CC3CC(CC(C3)C1)C2 (stereo not shown) [rimantadine] | – | – | – | – | effect against influenza A [6]: effective only against influenza subtype A; effect on influenza B [7]: no effect on influenza B
CC(=O)N[C@H]1[C@H]([C@H](O)[C@H](O)CO)OC(O)(C(=O)O)C[C@@H]1O (stereo partly shown) [sialic acid, N-acetylneuraminic acid, reference compound] | – | – | – | – | IC50 [1, 12]: > 10 mM; IC50 ([8]; whole virus screen, MUN and fetuin, read-out: IC50 (modest product inhibitor)): 10 mM; Ki [5]: ~1 mM
N-acetyl neuraminyl lactose | – | – | – | – | Km [10]: ~400 µM
CC(=O)N[C@H]1[C@H]([C@H](O)[C@H](O)CO)OC(C(=O)O)=C[C@@H]1O [DANA, 2-deoxy-2,3-dehydro-N-acetylneuraminic acid, reference compound] | 0.015 mM | 0.015 mM | 0.015 mM | 0.015 mM | Ki [11]: 0.004 mM; Ki ([5]; in vitro, influenza neuraminidase): 0.01 mM
